In this test the target is Neuronal acetylcholine receptor; alpha4/beta2 (Rattus norvegicus, UniProt P09483+P12390). Put plainly: Binding affinity for rat brain Nicotinic acetylcholine receptor alpha4-beta2 using [3H]S-(-)-nicotine.
Sequence of Neuronal acetylcholine receptor; alpha4/beta2 (P09483 whole entry): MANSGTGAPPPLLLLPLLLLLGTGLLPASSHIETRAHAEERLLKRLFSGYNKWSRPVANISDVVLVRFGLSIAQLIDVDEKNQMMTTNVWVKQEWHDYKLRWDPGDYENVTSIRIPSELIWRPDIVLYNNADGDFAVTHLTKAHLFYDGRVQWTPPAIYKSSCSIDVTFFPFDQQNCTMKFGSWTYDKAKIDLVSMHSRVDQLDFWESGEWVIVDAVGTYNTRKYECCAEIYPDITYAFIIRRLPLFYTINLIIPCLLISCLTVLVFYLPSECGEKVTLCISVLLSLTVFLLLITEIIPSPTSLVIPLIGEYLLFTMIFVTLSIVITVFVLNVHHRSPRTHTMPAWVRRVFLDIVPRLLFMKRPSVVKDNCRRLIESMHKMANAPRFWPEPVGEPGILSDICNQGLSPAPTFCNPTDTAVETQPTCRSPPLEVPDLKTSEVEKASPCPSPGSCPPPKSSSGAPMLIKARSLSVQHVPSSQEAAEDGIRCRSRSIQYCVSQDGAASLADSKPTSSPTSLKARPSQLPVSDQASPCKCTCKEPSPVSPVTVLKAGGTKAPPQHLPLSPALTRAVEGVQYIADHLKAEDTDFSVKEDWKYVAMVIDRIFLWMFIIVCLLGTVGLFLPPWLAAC
Sequence of Neuronal acetylcholine receptor; alpha4/beta2 (P12390 whole entry): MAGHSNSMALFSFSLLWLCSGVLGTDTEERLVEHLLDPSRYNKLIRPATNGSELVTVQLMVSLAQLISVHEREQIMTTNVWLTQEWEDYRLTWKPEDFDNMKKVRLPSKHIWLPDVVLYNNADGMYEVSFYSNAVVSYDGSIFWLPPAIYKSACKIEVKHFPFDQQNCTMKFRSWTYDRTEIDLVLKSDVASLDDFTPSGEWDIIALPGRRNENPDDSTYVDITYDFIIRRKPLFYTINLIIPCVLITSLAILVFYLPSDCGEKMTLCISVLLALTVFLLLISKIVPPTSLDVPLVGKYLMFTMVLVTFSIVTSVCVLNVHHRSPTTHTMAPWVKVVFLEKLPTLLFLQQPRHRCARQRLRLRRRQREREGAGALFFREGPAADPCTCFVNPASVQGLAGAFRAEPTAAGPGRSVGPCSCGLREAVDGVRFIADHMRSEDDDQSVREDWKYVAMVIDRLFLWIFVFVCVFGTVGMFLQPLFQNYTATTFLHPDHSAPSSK
`CCN(C)CCc1ccc(Cl)nc1`: the affinity, expressed as Ki, was 0.07 µM.
For `CCN(C)CCc1cncc(Br)c1` the value was 0.36 µM.
For `CCN(C)CCc1cncc(OC)c1` the value was 0.019 µM; for `CCN(C)CCc1cnccc1N`, more than 10 µM; for `CCN(C)CCc1ccc(C)nc1`, 0.24 µM.
For `CCN(C)CCc1ccc(Br)nc1` the value was 0.083 µM; for `CCN(C)CCc1cncc(C)c1`, 0.37 µM; for `CCN(C)CCc1cnccc1OC`, 1.84 µM.
`CCN(C)CCc1cncc(Cl)c1` returned a Ki of 0.31 µM.
`CCN(C)CCc1ccc(CCc2ccc(OC)cc2)nc1` had a Ki of more than 10 µM.
The compound `CCN(C)CCc1ccc(CCc2ccc(Cl)cc2)nc1` came in with a Ki of more than 10 µM.

The values are drawn from ChEMBL document CHEMBL1141059, “3-(2-Aminoethyl)pyridine analogs as alpha4beta2 nicotinic cholinergic receptor ligands” (Bioorg Med Chem Lett, 2005).
